# In patent US20130302282A1, “Inhibitors of Hepatitis C Virus” (priority 2010, published 2013):
# Where two headings read alike, the source gives them in different places.
# Tests used:
# HCV 1a = HCV 1a replicon assay; assay type: cell-based; conditions: Hepatitis C virus; class symbol; cell marked (HCV genotype 1a replicon); read-out: Inhibition of HCV genotype 1a replicon
# Description: (§1) Compounds of the invention can inhibit multiple genotypes of HCV selected but not limited to 1a, 1h, 2a, 3a, and 4a. The EC50s are measured in the corresponding replicon assays that are similar to HCV 1b replicon assay as described above.
# (§2) The biological activity against HCV 1b, 1a, or 2a is indicated as being *, **, ***, or ****, which corresponds to EC50 ranges of EC50>1000 nM, 100 nM<EC50≦1000 nM, 10 nM<EC50≦100 nM, or EC50≦10 nM, respectively. The biological activity against HCV NS5B C316Y or S365A mutant is indicated as being […], which corresponds to EC50 ranges of EC50>1000 nM, 200 nM<EC50≦1000 nM, […], respectively.
# [1] = tested on: 1b_Huh-Luc/Neo-ET cell line (bicistronic genotype 1b replicon in Huh 7 cells); experiment: HCV 1b replicon assay, luciferase readout; assay type: cell-based, HCV genotype 1b; conditions: Hepatitis C virus
# Description: Biological activity of the compounds of the invention was determined using an HCV replicon assay. The 1b_Huh-Luc/Neo-ET cell line persistently expressing a bicistronic genotype 1b replicon in Huh 7 cells was obtained from ReBLikon GMBH. This cell line was used to test compound inhibition using luciferase enzyme activity readout as a measurement of compound inhibition of replicon levels.
# On Day 1 (the day after plating), each compound is added in triplicate to the cells. Plates incubated for 72 […] prior to running the luciferase assay. Enzyme activity was measured using a Bright-Glo Kit (cat. number E2620) manufactured by Promega Corporation. The following equation was used to generate a percent control value for each compound.
# %Control=(Average Compound Value/Average Control)*100
# The EC50 value was determined using GraphPad Prism and the following equation:
# Y=Bottom+(Top−Bottom)/(1+10̂((LogIC50−X)*HillSlope))
# EC50 values of compounds are repeated several times in the replicon assay.
# HCV 2a = HCV 2a replicon assay; assay type: cell-based; conditions: Hepatitis C virus; class symbol; cell marked (HCV genotype 2a replicon); read-out: Inhibition of HCV genotype 2a replicon
# Description: as §1, §2
# [2] = Huh-7, 1b_Huh-Luc/Neo-ET cell line, read-out: EC50, half-maximal inhibition of HCV 1b replication
# [3] = Huh-7, class symbol, HCV genotype 1b replicon, read-out: Inhibition of HCV genotype 1b replicon
Structure (SMILES),EC50 (HCV 1a),"EC50 [1, 2]",EC50 (HCV 2a),"EC50 [1, 3]"
"CNC(=O)c1c(-c2ccc(F)cc2)oc2cc3c(cc12)[C@@H](C)N1CCC[C@H]1CN3S(C)(=O)=O (single isomer, unassigned) [Compound B122]",> 1000 nM,,,
"CNC(=O)c1c(-c2ccc(Oc3ccc(F)cc3)cc2)oc2cc3c(cc12)[C@H]1C[C@H]1CCN3S(C)(=O)=O (single isomer, unassigned) [Compound B143]",100 to 1000 nM,,,
"CNC(=O)c1c(-c2ccc(Oc3ccc(F)cc3)cc2)oc2cc3c(cc12)[C@@H]1C[C@@H]1CCN3S(C)(=O)=O (single isomer, unassigned) [Compound B146]",10 to 100 nM,10 to 100 nM,,
CNC(=O)c1c(-c2ccc(F)cc2)oc2cc3c(cc12)C(C)CCN3S(C)(=O)=O (centres unmarked) [Compound B10],,,100 to 1000 nM,
CNC(=O)c1c(-c2ccc(F)cc2)oc2cc3c(cc12)C(C)=CCN3S(C)(=O)=O [Compound B11],,,> 1000 nM,
C=C1CCCN(S(C)(=O)=O)c2cc3oc(-c4ccc(F)cc4)c(C(=O)NC)c3cc21 [Compound B61],,,> 1000 nM,
CNC(=O)c1c(-c2ccc(F)cc2)oc2cc3c(cc12)C(C)=CCCN3S(C)(=O)=O [Compound B62],,,> 1000 nM,
CS(=O)(=O)N1CCCCc2cc3c(C(=O)NC#N)c(-c4ccc(F)cc4)oc3cc21 [Compound B64],,,> 1000 nM,
CS(=O)(=O)N1CCCCc2cc3c(-c4nnn[nH]4)c(-c4ccc(F)cc4)oc3cc21 [Compound B65],,,> 1000 nM,
CS(=O)(=O)N1CCCCc2cc3c(C4=NCCN4)c(-c4ccc(F)cc4)oc3cc21 [Compound B66],,,> 1000 nM,
CNC(=O)c1c(-c2ccc(F)cc2)oc2cc3c(cc12)CCCCN3C(C)=O [Compound B80],> 1000 nM,,,
CNC(=O)c1c(-c2ccc(F)cc2)oc2cc3c(cc12)/C(C)=C\CCCN3S(C)(=O)=O [Compound B81],100 to 1000 nM,,,
CNC(=O)c1c(-c2ccc(F)cc2)oc2cc3c(cc12)C(=O)CCCCN3S(C)(=O)=O [Compound B82],100 to 1000 nM,,,
CNC(=O)c1c(-c2ccc(F)cc2)oc2cc3c(cc12)CCCCN3S(N)(=O)=O [Compound B102],100 to 1000 nM,,,
CNC(=O)c1c(-c2ccc(F)cc2)oc2cc3c(cc12)CCCCN3S(=O)(=O)N(C)C [Compound B103],100 to 1000 nM,,,
CNC(=O)c1c(-c2ccc(F)cc2)oc2cc3c(cc12)C1(CCCCN3S(C)(=O)=O)CC1 [Compound B104],100 to 1000 nM,,,
CNC(=O)c1c(-c2ccccc2)nn2cc3c(cc12)C(C)CCCN3S(C)(=O)=O (centres unmarked) [Compound B105],100 to 1000 nM,,,
CNC(=O)c1c(-c2ccc(F)cc2)oc2cc3c(cc12)C(=O)N(C)CCN3S(C)(=O)=O [Compound B106],10 to 100 nM,10 to 100 nM,,
CNC(=O)c1c(-c2ccc(F)cc2)oc2cc3c(cc12)C(C)N(CC1CC1)CCN3S(C)(=O)=O (centres unmarked) [Compound B108],10 to 100 nM,10 to 100 nM,,
CNC(=O)c1c(-c2ccc(F)cc2)oc2cc3c(cc12)C(C)N(C(=O)OC)CCN3S(C)(=O)=O (centres unmarked) [Compound B109],10 to 100 nM,10 to 100 nM,,
CNC(=O)c1c(-c2ccc(F)cc2)oc2cc3c(cc12)C(C)N(C(C)=O)CCN3S(C)(=O)=O (centres unmarked) [Compound B110],100 to 1000 nM,,,
CNC(=O)c1c(-c2ccc(F)cc2)oc2cc3c(cc12)C(C)N(C(=O)OCc1ccccc1)CCN3S(C)(=O)=O (centres unmarked) [Compound B111],10 to 100 nM,10 to 100 nM,,
[2H]C([2H])([2H])NC(=O)c1c(-c2ccc(F)cc2)oc2cc3c(cc12)CCCCN3S(C)(=O)=O [Compound B112],10 to 100 nM,10 to 100 nM,,
[2H]C([2H])([2H])NC(=O)c1c(-c2ccc(F)cc2)oc2cc3c(cc12)CCCCCN3S(C)(=O)=O [Compound B113],10 to 100 nM,10 to 100 nM,,
CNC(=O)c1c(-c2ccc(F)cc2)oc2cc3c(cc12)C(C)C(C)(C)CCN3S(C)(=O)=O (centres unmarked) [Compound B115],10 to 100 nM,10 to 100 nM,,
CNC(=O)c1c(-c2ccc(Oc3ccc(F)cc3)cc2)oc2cc3c(cc12)C(C)OCCN3S(C)(=O)=O (centres unmarked) [Compound B116],10 to 100 nM,10 to 100 nM,,

Structure (SMILES),EC50 (HCV 1a),"EC50 [1, 2]",EC50 (HCV 2a),"EC50 [1, 3]"
CNC(=O)c1c(-c2ccc(Oc3ccc(F)cc3)cc2)oc2cc3c(cc12)[C@@H](C)OCCN3S(C)(=O)=O [Compound B117],100 to 1000 nM,,,
[2H]C([2H])([2H])NC(=O)c1c(-c2ccc(Oc3ccc(F)cc3)cc2)oc2cc3c(cc12)C(C)OCCN3S(C)(=O)=O (centres unmarked) [Compound B119],10 to 100 nM,10 to 100 nM,,
[2H]C([2H])([2H])NC(=O)c1c(-c2ccc(F)cc2)oc2cc3c(cc12)C(C)CCCN3S(C)(=O)=O (centres unmarked) [Compound B121],< 10 nM,≤ 10 nM,,
CCCN1CCN(S(C)(=O)=O)c2cc3oc(-c4ccc(F)cc4)c(C(=O)NC)c3cc2C1C (centres unmarked) [Compound B137],10 to 100 nM,10 to 100 nM,,
CNC(=O)c1c(-c2ccc(Oc3ccc(F)cc3)cc2)oc2cc3c(cc12)C1CC1CCN3S(C)(=O)=O (centres unmarked) [Compound B140],100 to 1000 nM,,,
CNC(=O)c1c(-c2ccc(Oc3ccc(F)cc3)cc2)oc2cc3c(cc12)C1(CCCN3S(C)(=O)=O)CC1 [Compound B141],100 to 1000 nM,,,
CNC(=O)c1c(-c2ccc(F)cc2)oc2cc3c(cc12)C(C)N(CC(=O)N(C)C)CCN3S(C)(=O)=O (centres unmarked) [Compound B150],10 to 100 nM,10 to 100 nM,,
CNC(=O)c1c(-c2ccc(Oc3ccc(F)cc3)cc2)oc2cc3c(cc12)C(C)N(C)CCN3S(C)(=O)=O (centres unmarked) [Compound B151],10 to 100 nM,10 to 100 nM,,
[2H]C([2H])([2H])NC(=O)c1c(-c2ccc(F)cc2)oc2cc3c(cc12)C(C)N(C)CCN3S(C)(=O)=O (centres unmarked) [Compound B152],100 to 1000 nM,,,
CNC(=O)c1c(-c2ccc(F)cc2)oc2cc3c(cc12)C(CF)OCCN3S(C)(=O)=O (centres unmarked) [Compound B153],10 to 100 nM,10 to 100 nM,,
CNC(=O)c1c(-c2ccc(F)cc2)oc2cc3c(cc12)C(C)N(CCCO)CCN3S(C)(=O)=O (centres unmarked) [Compound B154],10 to 100 nM,10 to 100 nM,,
CNC(=O)c1c(-c2ccc(F)cc2)oc2cc3c(cc12)C(C)N(CCc1ccc(F)cc1)CCN3S(C)(=O)=O (centres unmarked) [Compound B155],10 to 100 nM,10 to 100 nM,,
CNC(=O)c1c(-c2ccc(F)cc2)oc2cc3c(cc12)C(C)OC(C(=O)NC)CN3S(C)(=O)=O (centres unmarked) [Compound B229],,10 to 100 nM,,10 to 100 nM
CNC(=O)c1c(-c2ccc(F)cc2)oc2cc3c(cc12)[C@H](C)O[C@H](CCO)CN3S(C)(=O)=O [Compound B230],,10 to 100 nM,,10 to 100 nM
CNC(=O)c1c(-c2ccc(F)cc2)oc2cc3c(cc12)[C@H](C)O[C@@H](CCO)CN3S(C)(=O)=O [Compound B231],,10 to 100 nM,,10 to 100 nM
CNC(=O)c1c(-c2ccc(F)cc2)oc2cc3c(cc12)[C@H](C)O[C@H](CCS(C)(=O)=O)CN3S(C)(=O)=O [Compound B233],,≤ 10 nM,,< 10 nM
CNC(=O)c1c(-c2ccc(F)cc2)oc2cc3c(cc12)[C@H](C)O[C@@H](CCS(C)(=O)=O)CN3S(C)(=O)=O [Compound B234],,10 to 100 nM,,10 to 100 nM
CNC(=O)c1c(-c2ccc(Oc3ccc(F)cc3)cc2)oc2cc3c(cc12)C(C)OC(CCO)CN3S(C)(=O)=O (centres unmarked) [Compound B235],,10 to 100 nM,,10 to 100 nM
CNC(=O)c1c(-c2ccc(Oc3ccc(F)cc3)cc2)oc2cc3c(cc12)C(C)OC(CCS(C)(=O)=O)CN3S(C)(=O)=O (centres unmarked) [Compound B236],,≤ 10 nM,,< 10 nM
CNC(=O)c1c(-c2ccc(Oc3ccc(F)cc3)cc2)oc2cc3c(cc12)[C@H](C)O[C@H](COC(=O)[C@@H](N)C(C)C)CN3S(C)(=O)=O [Compound B237],,≤ 10 nM,,< 10 nM
CNC(=O)c1c(-c2ccc(Oc3ccc(F)cc3)cc2)oc2cc3c(cc12)[C@H](C)O[C@H](COC(=O)[C@H](C)N)CN3S(C)(=O)=O [Compound B238],,≤ 10 nM,,< 10 nM
CNC(=O)c1c(-c2ccc(Oc3ccc(F)cc3)cc2)oc2cc3c(cc12)[C@H](C)O[C@H](COC(=O)CN(C)C)CN3S(C)(=O)=O [Compound B239],,≤ 10 nM,,< 10 nM
CNC(=O)c1c(-c2ccc(Oc3ccc(F)cc3)cc2)oc2cc3c(cc12)[C@H](C)O[C@H](COP(=O)(O)O)CN3S(C)(=O)=O [Compound B240],,≤ 10 nM,,< 10 nM
CNC(=O)c1c(-c2ccc(Oc3ccc(F)cc3)cc2)oc2cc3c(cc12)[C@H](C)O[C@@H](CO)CN3S(C)(=O)=O [Compound B241],,10 to 100 nM,,10 to 100 nM
CNC(=O)c1c(-c2ccc(F)cc2)nn2cc3c(cc12)C(C)OC(CO)CN3S(C)(=O)=O (centres unmarked) [Compound B242],,,,100 to 1000 nM
